Experimental findings from patent publication US20210324359A1, “USE OF GRAM-NEGATIVE LYSIN-ANTIMICROBIAL PEPTIDE (AMP) POLYPEPTIDE CONSTRUCTS IN TREATING ENDOCARDITIS” (priority 2020, published 2021) are described below.

Holding throughout (type): cell-based, Pseudomonas aeruginosa
In test [1] the test system is carbapenem-resistant P. aeruginosa strains. Put plainly: Resensitization of carbapenem-resistant strains, combinations with imipenem or meropenem (Tables 18-22). Here is the method: Such resensitization may be determined by combining the present lysins or lysin-AMP polypeptide constructs with an antibiotic in a checkerboard assay as described herein. Antibiotic-resistant bacteria, such as carbapenem-resistant P. aeruginosa, are added to the lysin or lysin-AMP polypeptide construct combination. […] See Clinical and Laboratory Standards Institute (CLSI), CLSI. […] M100 Performance Standards for Antimicrobial Susceptibility Testing; 29th Edition. Clinical and Laboratory Standards Institute, Wayne, Pa., which is herein incorporated by reference in its entirety.
Up to seven carbapenem-resistant isolates were assessed. […] See Clinical and Laboratory Standards Institute (CLSI), CLSI. […] M100 Performance Standards for Antimicrobial Susceptibility Testing; 29th Edition. Clinical and Laboratory Standards Institute, Wayne, Pa.

Test [2] deals with P. aeruginosa. Put plainly: MIC, modified CLSI broth microdilution in CAA medium without or with […] human serum (Table 4). On CAA/HuS MIC: CAA supplemented with 2.5% human serum. As to conditions: for CAA MIC: CAA medium, no human serum; for CAA/HuS MIC: CAA supplemented with […] human serum; for effect of the structural modification on activity (as assessed by MIC) versus the parent lysin: CAA with and without human serum, parent GN316 or GN37. The text has this: 2015. […] Clinical and Laboratory Standards Institute, Wayne, Pa.
On the technique in general: Broth dilution looks for growth in wells or tubes with falling amounts of substance.

Test [3] deals with carbepenam-resistant clinical isolate WC-453. Put plainly: MIC in CAA without or with 25% human serum (Table 5). The arrangement: CAA MIC: unit not given here. Here is the method:
MIC values were determined using a modification of the standard broth microdilution reference method defined by the Clinical and Laboratory Standards Institute (CLSI), CLSI. […] Methods for Dilution Antimicrobial Susceptibility Tests for Bacteria That Grow Aerobically; Approved Standard-10th Edition. Clinical and Laboratory Standards Institute, Wayne, Pa.

In test [4] the test system is P. aeruginosa strain WC-453. Put plainly: Time-kill assay in HEPES or CAA with 25% human serum (Tables 7, 8). To be noted: lysin 10 μg/ml, WC-453; for HEPES (Log10 CFU/mL), 1 hr / HEPES (Log10 CFU/mL), 3 hr: 25 mM HEPES pH 7.4; for CAA/HuS (Log10 CFU/mL), 1 hr / CAA/HuS (Log10 CFU/mL), 3 hr: CAA + 25% human serum. On the procedure: Exponential phase bacteria were then pelleted and resuspended in 1/5 culture volume of 25 mM HEPES, pH 7.4 before a final adjustment to an optical density corresponding to a McFarland value of 0.5. […] All treatments were incubated at 37° C. with aeration. At time points before the addition of lysin (or buffer control) and at 1 hour and 3 hours intervals thereafter, culture samples were removed for quantitative plating on CAA agar plates.

Setting [5] is: in combination with GN121, isolate PA19.
Where [6] appears, read: in combination with GN121, isolate PA20.
Setting [7] is: in combination with GN121, isolate PA21.
The mark [8] stands for this setting: in combination with GN121, isolate PA22.
Where [9] appears, read: in combination with GN121, isolate PA23.
Setting [10] is: in combination with GN121, isolate PA24.
[11] abbreviates: in combination with GN123, isolate PA19.
Where [12] appears, read: in combination with GN123, isolate PA20.
Setting [13] is: in combination with GN123, isolate PA21.
[14] abbreviates: in combination with GN123, isolate PA22.
The mark [15] stands for this setting: in combination with GN123, isolate PA23.
[16] abbreviates: in combination with GN123, isolate PA24.
[17] abbreviates: in combination with GN123, isolate WC-452.

For `C[C@@H](O)[C@H]1C(=O)N2C(C(=O)O)=C(SCCN=CN)C[C@H]12` [Imipenem, imipenem, reference compound], the “antibiotic MIC, Combination” value in test [1] (setting [5]) is 1 mg/L; in test [1] (setting [6]), 0.5 mg/L; in test [1] (setting [7]), 1 mg/L; in test [1] (setting [8]), 2 mg/L; in test [1] (setting [9]), 0.125 mg/L; in test [1] (setting [10]), 1 mg/L. Besides, the “antibiotic MIC, Combination” value stood at 0.5 mg/L in test [1] (setting [11]); 1 mg/L in test [1] (setting [12]); 0.5 mg/L in test [1] (setting [13]); 2 mg/L in test [1] (setting [14]); 0.25 mg/L in test [1] (setting [15]); 2 mg/L in test [1] (setting [16]). Further, the “antibiotic MIC, Combination” value in test [1] (setting [17]) came out at 1 mg/L. Besides, the “carbapenem susceptibility class, Combination” value in test [1] (setting [5]), in test [1] (setting [6]), in test [1] (setting [7]), in test [1] (setting [8]), in test [1] (setting [9]) and in test [1] (setting [10]) was “(S) ((S) = sensitive)” in each case. Also, the “carbapenem susceptibility class, Combination” value in test [1] (setting [11]), in test [1] (setting [12]), in test [1] (setting [13]), in test [1] (setting [14]), in test [1] (setting [15]) and in test [1] (setting [16]) was “(S) ((S) = sensitive)” each time. The “carbapenem susceptibility class, Combination” value was “(S) ((S) = sensitive)” in test [1] (setting [17]); “(S) ((S) = sensitive)” in test [1] (in combination with GN351, vs. WC-452); “(S) ((S) = sensitive)” in test [1] (in combination with GN370, vs. WC-452); “(S) ((S) = sensitive)” in test [1] (in combination with GN428, vs. WC-452). Moreover, the “carbapenem susceptibility class, antibiotic Alone” value in test [1] (isolate PA19), in test [1] (isolate PA20), in test [1] (isolate PA21), in test [1] (isolate PA22), in test [1] (isolate PA23) and in test [1] (isolate PA24) was “R ((R) = resistant)” in each case. Moreover, the “carbapenem susceptibility class, antibiotic Alone” value in test [1] (isolate WC-452) is on record as “R ((R) = resistant)”.

B1: GN223: lysin-AMP construct: RPP moiety, IGEM linker and amurin peptide Gkh2 C-terminal to GN37 lysin (SEQ ID NO: 12) (protein)
chain: MTYTLSKRSLDNLKGVHPDLVAVVHRAIQLTPVDFAVIEGLRSVSRQKELVAAGASKTMNSRHLTGHAVDLAAYVNGIRWDWPLYDAIAVAVKAAAKELGVAIVWGGDWTTFKDGPHFELDRSKYRPPGGGSGGGGSGGGSSKKASRKSFTKGAVKVHKKNVPTRVPMRGGIRL
Consider B1, for which, in test [2], the “CAA MIC” value was found to be 32000 mg/L, the “CAA/HuS MIC” value came to 2000 mg/L and the “effect of the structural modification on activity (as assessed by MIC) versus the parent lysin” value is given as “very strong activity in the presence of human serum”.

B2: GN328: lysin obtained from Pseudomonas protegens (SEQ ID NO: 220) (protein, listed as Pseudomonas protegens)
chain: MNTLRHGDRSQAVRSLQKNLNSHGAILVVDGDYGDATEAAVRAYQLKAGLVVDGIAGEKTQTSLVGGDCALLLKNADLVSAAQRLDLPLASVYAVNEVESNGKGFFANGKPAILFERHIMYRQLKTPRYPGDDPAELKRHADELAAQYPAIINPNPGGYAGGPAEHQRLATARLIDDTAALESASWGAFQIMGFHWKRLGYASVQDFVTAMSASEPRQFEAFVRFIETDPALHKALKARKWSDFARQYNGPNYQRNLYDTKLQRAYERHSACSCGQEVPA
Regarding B2, the “activity in CAA supplemented with human serum (25%)” value in test [3] is “active”. For the same molecule, the “CAA MIC” value in test [3] (CAA) is on record as 8. For the same molecule, in test [3] (CAA supplemented with 25% human serum), the “CAA/HuS MIC” value is 2.

B3: GN40: lysin obtained from Pseudomonas putida strain PA14H7 (SEQ ID NO: 210) (protein, listed as Micavibrio aeruginosavorus)
chain: MFRPSYILPGVAAVMLLASTAAHAAGYEWKRVDYQYLQSVSEKERGMLRIYKDYEEREPCQNYRELPPEVKYVDCKLYHRVAIPDPPPPPAPPPAPEPPKVVSSYEIFFPLDSTALDLQANAMVDKAAADIALYQPSTVIVAGYTDTSGAADYNDQLSANRAMAVSAALSQRGIPNTAMDLEAHGQNDLKVPTADDVHEPQNRRTVIHFMK
Take B3: in test [4], the “HEPES (Log10 CFU/mL), 1 hr” value is 7.0 Log10 CFU/mL; the “HEPES (Log10 CFU/mL), 3 hr” value was 5.7 Log10 CFU/mL; the “CAA/HuS (Log10 CFU/mL), 1 hr” value is 6.6 Log10 CFU/mL; the “CAA/HuS (Log10 CFU/mL), 3 hr” value is 6.7 Log10 CFU/mL.

B4: GN81: dispersin B, an enzyme that degrades biofilm (SEQ ID NO: 226); control (protein, listed as Actinobacillus pleuropneumoniae)
chain: MDLPKKESGLTLDIARRFYTVDTIKQFIDTIHQAGGTFLHLHFSDHENYALESSYLEQREENATEKNGTYFNPKTNKPFLTYKQLNEIIYYAKERNIEIVPEVDSPNHMTAIFDLLTLKHGKEYVKGLKSPYIAEEIDINNPEAVEVIKTLIGEVIYIFGHSSRHFHIGGDEFSYAVENNHEFIRYVNTLNDFINSKGLITRVWNDGLIKNNLSELNKNIEITYWSYDGDAQAKEDIQYRREIRADLPELLANGFKVLNYNSYYLYFVPKSGSNIHNDGKYAAEDVLNNWTLGKWDGKNSSNHVQNTQNIIGSSLSIWGERSSALNEQTIQQASKNLLKAVIQKTNDPKSH
Take B4: in test [4], the “HEPES (Log10 CFU/mL), 1 hr” value is given as 7.4 Log10 CFU/mL; the “HEPES (Log10 CFU/mL), 3 hr” value is 6.5 Log10 CFU/mL; the “CAA/HuS (Log10 CFU/mL), 1 hr” value is given as 6.7 Log10 CFU/mL; the “CAA/HuS (Log10 CFU/mL), 3 hr” value is given as 7.0 Log10 CFU/mL.

B5: GN239: lysin-AMP construct: IGEM linker and RI18 peptide C-terminal to GN37 lysin (SEQ ID NO: 14) (protein)
chain: MTYTLSKRSLDNLKGVHPDLVAVVHRAIQLTPVDFAVIEGLRSVSRQKELVAAGASKTMNSRHLTGHAVDLAAYVNGIRWDWPLYDAIAVAVKAAAKELGVAIVWGGDWTTFKDGPHFELDRSKYGGGSGGGGSGGGSRKKTRKRLKKIGKVLKWI
As for B5, in test [2], the “CAA MIC” value was found to be 4000 mg/L, the “CAA/HuS MIC” value is 250 mg/L and the “effect of the structural modification on activity (as assessed by MIC) versus the parent lysin” value is “very strong activity in the presence of human serum”.

B6: GN243: lysin-AMP construct: PP moiety, IGEM linker and TI15 peptide C-terminal to GN37 lysin (SEQ ID NO: 16) (protein)
chain: MTYTLSKRSLDNLKGVHPDLVAVVHRAIQLTPVDFAVIEGLRSVSRQKELVAAGASKTMNSRHLTGHAVDLAAYVNGIRWDWPLYDAIAVAVKAAAKELGVAIVWGGDWTTFKDGPHFELDRSKYRKKTRKRLKKIGKVLKWIPPGGGSGGGGSGGGSTRKRLKKIGKVLKWI
B6: in test [2], the “CAA MIC” value came to 32000 mg/L, the “CAA/HuS MIC” value turned out to be 500 mg/L and the “effect of the structural modification on activity (as assessed by MIC) versus the parent lysin” value is reported as “very strong activity in the presence of human serum”.

B7: GN65: Lysin GN65, used as control (protein)
chain: MAILKIGSKGLEVKNLQTSLNKIGFNLVADGIFGKATDNAVRAVQAGAGLVVDGIAGPKTMYAIRNAGESHQDHLTEADLIDAARELSVDLASIKAVNQVESRGTGFTKSGKIKTLFERHIMYKKLNAKFGQAKANALAQLYPTLVNAKAGGYTGGDAELERLHGAIAIDKDCAYESASYGLFQIMGFNCVICGYDNAEEMFNDFLTGERAQLMAFVKFIKADANLWKALKDKNWAEFARRYNGPAYAQNQYDTKLAAAYKSFS
modifications: (1)..(264) GN316 lysin
On to B7, for which, in test [4], the “HEPES (Log10 CFU/mL), 1 hr” value turned out to be 5.7 Log10 CFU/mL; the “HEPES (Log10 CFU/mL), 3 hr” value was less than 3.7 Log10 CFU/mL; the “CAA/HuS (Log10 CFU/mL), 1 hr” value stood at 6.0 Log10 CFU/mL; the “CAA/HuS (Log10 CFU/mL), 3 hr” value was less than 3.7 Log10 CFU/mL.
